From patent US10208210B2, “Hydrophilic oil repellent and production method of same, surface coating material, coating film, resin composition, oil-water separation filter material, and porous body” (MITSUBISHI MATERIALS CORPORATION, priority 2014, dated 2019)

Test: Solubility of the compound in water at room temperature
Assay type: physicochemical
Conditions: room temperature (25° C.)
Experimental: 23.5 g of perfluoro(3-dibutylaminopropionic acid) was neutralized with 1.5 g of calcium hydroxide in a methanol/water mixed solution. The precipitated crystals were separated by filtration, and dried at 100° C., whereby 23.5 g of perfluoro(3-dibutylaminopropionic acid) calcium represented by the following formula (376) was obtained (yield of 97%). The solubility of the present compound in water at room temperature (25° C.) was 2 [g/100 g-H2O].
15.0 g of perfluoro(3-dibutylaminopropionic acid) obtained in the same manner as in Synthesis Example 1 was neutralized with 1.2 g of magnesium hydroxide in a methanol/water mixed solution. Next, the precipitated crystals were separated by filtration, and by extracting with methanol, a magnesium salt was obtained. The methanol was distilled off, whereby 14.4 g of perfluoro(3-dibutylaminopropionic acid) magnesium represented by the following formula (379) was obtained (yield of 94%). The solubility of the present compound in water at room temperature was 0.009 [g/100 g-H2O].
15.0 g of perfluoro(3-dibutylaminopropionic acid) obtained in the same manner as in Synthesis Example 1 was neutralized with 4.0 g of barium hydroxide octahydrate in a methanol/water mixed solution. […]

| SMILES | solubility of the present compound in water |
| --- | --- |
| O=C(O)C(F)(F)C(F)(F)N(C(F)(F)C(F)(F)C(F)(F)C(F)(F)F)C(F)(F)C(F)(F)C(F)(F)C(F)(F)F.[Mg] [Synthesis Example 4, perfluoro(3-dibutylaminopropionic acid) magnesium] | 0.009 g/100 g-H2O |
| O=C(O)C(F)(F)C(F)(F)N(C(F)(F)C(F)(F)C(F)(F)C(F)(F)F)C(F)(F)C(F)(F)C(F)(F)C(F)(F)F.[Ba] [Synthesis Example 5, perfluoro(3-dibutylaminopropionic acid) barium] | 0.04 g/100 g-H2O |
